Legend:
[1] = system: 32D myeloid progenitors; test: adhesion of 32D progenitors to fibronectin fragment CH296; format: cell-based, murine; conditions: gradient CASIN treatments
Source text: (§1) To shed light on potential roles of CASIN in HSPC mobilization, the effects of CASIN on Cdc42-related cellular functions was studied, including adhesion, migration, and F-actin polymerization of progenitor cells in 32D myeloid progenitors. […] SDF-1α stimulation causes a reorganization of F-actin into a cortical ring around the cells. […] Thirdly, to gain further insight into cellular specificity and efficacy of CASIN, and also to rule out possible toxic effects by CASIN, Cdc42-involved BM progenitor cell functions were examined, including proliferation, adhesion, migration, and F-actin polymerization, in Cdc42^+/+ cells in parallel with Cdc42^−/− cells. In line with additional studies in a Cdc42 conditional knockout mouse model as described herein, Cdc42^−/− LDBM cells have increased CFU-forming progenitors compared to those of Cdc42^+/+.

[2] = system: LDBM cells; test: proliferation (CFU) and toxicity in Cdc42+/+ and Cdc42−/− LDBM progenitors; format: cell-based, murine
Source text: as §1

[3] = system: progenitor cells in spleen and liver; test: CFU-C assays of spleen and liver after treatment; format: in vivo, mice; conditions: after CASIN injection
[4] = system: human CD34^+ umbilical cord blood cells; test: flow cytometry of F-actin polymerization in human CD34+ HCB cells; format: cell-based; conditions: human CD34^+ HCBs, SDF-1α induced
Description: FIG. 4A. SDF-1α induced F-actin polymerization over time without or with gradient CASIN treatment, determined by MFI using FACS analysis.
To begin to study potential utility of CASIN in human hematopoietic stem cell mobilization, a series of cellular assays were carried out to determine the effects on human CD34^+ umbilical cord blood cells (HCBs). […] The effects of CASIN on human hematopoietic cell mobilization was therefore tested using a well established preclinical in vivo model (NOD/SCID-Hcb) of human hematopoietic function, where fresh CD34^+ hCB cells were transplanted into sub-lethally irradiated NOD/SCIDs by intrafemoral injection, and repopulated and maintained human hematopoietic reconstitution in the bone marrow of NOD/SCID recipient mice (FIG. 9b, FIG. 11) (Larochelle, A. et al. Nat Med 2, 1329-1337 (1996); Bhatia, M., et al. Proc Natl Acad Sci USA 94, 5320-5325 (1997)). Intravenous injections of CASIN were applied when human cells were well engrafted in the NOD/SCID recipients.

[5] = system: C57Bl/6, C3H/HeJ and DBA/2 mice; test: Example 7 HPC mobilization in comparison and combination with G-CSF; conditions: mouse, in vivo
Description: Broad interindividual variability exists in mobilization of HSC/Ps in different strains of mice and man. In some patients, G-CSF is a poor mobilizer. Therefore, the mobilizing capability of CASIN in comparison with G-CSF is evaluated, and in combination with G-CSF, in strains of mice that were reported to differ in responsiveness to G-CSF. Besides C57Bl/6, included in this set of experiments are C3H/HeJ and DBA/2 mice which respond very well to the mobilizing effects of G-CSF compared with C57Bl/6 mice. For each strain of mice, four groups are divided according to regimens used for mobilization: (1) Control medium; (2) CASIN administration; (3)G-CSF: twice a day for 2 days (4) G-CSF plus CASIN administration. Mice are bled 18 h after the last injection, and blood is plated in triplicate for CFU-C assay. Numbers of HPCs in CFU-E, BFU-E, CFU-GM, and CFU-GEMM are calculated per ml of blood later on reflecting the mobilization capacity of different regimens on HPCs.

[6] = system: Fancc−/− mice; test: Example 10 preparative regimen for BM transplantation in Fancc−/− mice; format: in vivo; conditions: preconditioning before BM transplantation
Description: Four preparative regimens before BM transplantation on Fancc−/− mice are used to evaluate the capacity of CASIN as a preconditioning agent: (1) Control group; (2) CY group: a single dose of 40 mg/kg CY intraperitoneally; (3) CASIN group: 2.5 mg/Kg; (4) combination of CASIN and CY: one injection of CASIN is given in combination with reduced doses of CY.
Fancc−/− mice are preconditioned with each of these four regimens, and 4×10^7 BM cells from congenic strain mice are transplanted into preconditioned mice by tail vein injection. Mice that underwent transplantation are bled every four weeks to monitor the chimerism of donor-derived cells in PB. And at 3 m, the mice are sacrificed to evaluate the engraftment of donor-derived cells in BM.

[7] = target: Cdc42 (Mus musculus, UniProt P60766); test: Example 7 effector pull-down in LDBM and HCB cells, Cdc42; format: cell-based, murine LDBM and human HCB cells; design: endogenous in cells; host or cells: murine LDBM cells and human CD34+ HCB cells
Description: To exclude the inhibitory effect of CASIN on other Rac isoforms, Rho GTPases, and Ras, broader effector pull-down experiments are performed on these possible candidates with gradient doses of CASIN in LDBM and HCB cells as previously described. In addition, CASIN has been indicated as a noncovalent and reversible inhibitor in Xenopus egg extract. To confirm it, reversibility is monitored in this set of effector pull-down experiments. Four treatment groups are divided for both LDBM and HCB cells: (1) Serum starvation 20 h; (2) Serum starvation 20 h+growth factors stimulation; (3) Serum starvation 20 h+CASIN treatment (doses: 1, 2.5, 5, and 10 μM) 3 h+growth factor stimulation; (4) Serum starvation 20 h+CASIN treatment (doses: 1, 2.5, 5, and 10 μM) 3 h+wash the cells, and culture for another 3 h for recovery+growth factors stimulation. […] Bound proteins are analyzed by immunoblotting with respective antibodies (BD Biosciences). Furthermore, changes of downstream targets of Cdc42, Rac, and Rho under the four treatment groups are assessed. Phosphorylation status of PAK1, WASP (effectors of Cdc42), WAVE (effector of Rac), and ROCK (effector of Rho) are monitored by western blots using respective antibodies.

Sequence of Cdc42 (P60766 1-188 limits assumed): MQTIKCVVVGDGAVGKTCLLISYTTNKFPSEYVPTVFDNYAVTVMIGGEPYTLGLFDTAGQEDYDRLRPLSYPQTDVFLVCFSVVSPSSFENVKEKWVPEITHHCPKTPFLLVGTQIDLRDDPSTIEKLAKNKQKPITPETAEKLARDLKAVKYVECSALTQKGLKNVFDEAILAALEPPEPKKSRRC

OCCNC1CCCc2c1[nH]c1ccc(-c3ccccc3)cc21 (centres unmarked) [CASIN]
percentages of adherent 32D cells to CH296 [1]: significantly reduced dose-dependently
proliferation of WT progenitors ([2]; Cdc42^+/+ LDBM cells, FIG. 2d): did not affect
side effect on the KO cells ([2]; Cdc42^−/− LDBM cells, FIG. 2d): nor showed any side effect
myeloproliferative disorders (MPDs) or hyperactivation ([2]; as compared with the Cdc42 conditional knockout mouse): did not cause
toxic effect in WT or Cdc42 deficient HSPCs ([2]; dose range of 5-10 μM): without a detectable toxic effect
progenitor cells found in spleen and liver [3]: increased level
F-actin polymerization [4]: inhibited F-actin polymerization of these human progenitors dose-dependently
mobilization in comparison and in combination with G-CSF [5]: more effective mobilization than G-CSF
repopulation and engraftment of donor derived cells in PB and BM of Fancc−/− recipient mice [6]: reasonable repopulation and engraftment of donor derived cells
activity of Cdc42 [7]: specifically inhibit the activity of Cdc42 in a dose-dependent manner
recovery of Cdc42 activity after wash [7]: recovers 3 h after CASIN is washed away
